The values below come from ChEMBL document CHEMBL6078672, “Chemical probes for the identification of the molecular targets of honokiol” (Eur J Med Chem, 2025).

The subject of series [1] is MDA-MB-231. The series is described as follows: Cytotoxicity against human MDA-MB-231 cells assessed as inhibition of cell growth incubated for 48 hrs by MTT assay. It is filed as functional, cell-based. The conditions noted are these: MDA-MB-231, 48 h. A general note: Formazan colour is commonly taken as a measure of viable cells.
The test system of another series is SK-OV-3. Briefly: Cytotoxicity against human SK-OV-3 cells assessed as inhibition of cell growth incubated for 48 hrs by MTT assay. It is filed as functional, cell-based. The conditions noted are these: SK-OV-3, 48 h.
The subject of the next series is OVCAR-3. The series is described as follows: Cytotoxicity against human OVCAR-3 cells assessed as inhibition of cell growth incubated for 48 hrs by MTT assay. The note with it: OVCAR-3, 48 h. It is filed as functional, cell-based.
Series [2] can be described thus: Drug localization in human MDA-MB-231 cells assessed as increase in fluorescent band intensity incubated for 30 mins in presence of UV irradiation by coomassie brilliant blue staining based SDS-PAGE analysis. It is filed as ADME, cell-based. The conditions noted are these: mda-mb-231, 0.5 h.
Series [3] is described as follows: Drug localization in human MDA-MB-231 cells assessed as increase in fluorescent band intensity at 1 to 10 uM incubated for 30 mins in presence of UV irradiation by coomassie brilliant blue staining based SDS-PAGE analysis. The note with it: mda-mb-231, 0.5 h, dose 1-10 µM. It is filed as ADME, cell-based.
Series [4] in a line: Drug localization in human MDA-MB-231 cells assessed as increase in fluorescent band intensity at 20 uM incubated for 30 mins in presence of UV irradiation by coomassie brilliant blue staining based SDS-PAGE analysis. It is filed as ADME, cell-based. The conditions noted are these: mda-mb-231, 0.5 h.
Series [5] is described as follows: Drug localization in human MDA-MB-231 cells assessed as increase in fluorescent band intensity at 20 uM incubated for 30 mins in absence of UV irradiation by coomassie brilliant blue staining based SDS-PAGE analysis. It is filed as ADME, cell-based. The conditions noted are these: mda-mb-231, 0.5 h.
Series [6] is described as follows: Drug localization in human membrane fraction of MDA-MB-231 cells assessed as increase in fluorescent band intensity at 10 uM incubated for 30 mins in presence of honokiol by coomassie brilliant blue staining based SDS-PAGE analysis. It is filed as ADME, cell membranes. The note with it: mda-mb-231, 0.5 h.
The nature of series [7]: Drug localization in human MDA-MB-231 cells assessed as increase in fluorescent band intensity at 10 uM incubated for 30 mins in presence of honokiol by coomassie brilliant blue staining based SDS-PAGE analysis. The conditions noted are these: mda-mb-231, 0.5 h. It is filed as ADME, cell-based.
Series [8] in a line: Drug localization in human membrane fraction of MDA-MB-231 cells assessed as increase in fluorescent band intensity at 10 uM incubated for 30 mins in presence of 2-O-ethylhonokiol by coomassie brilliant blue staining based SDS-PAGE analysis. It is filed as ADME, cell membranes. The conditions noted are these: mda-mb-231, 0.5 h.
Series [9] is described as follows: Drug localization in human MDA-MB-231 cells assessed as increase in fluorescent band intensity at 10 uM incubated for 30 mins in presence of 2-O-ethylhonokiol by coomassie brilliant blue staining based SDS-PAGE analysis. It is filed as ADME, cell-based. The conditions noted are these: mda-mb-231, 0.5 h.
The nature of series [10]: Drug localization in human SK-OV-3 cells assessed as increase in fluorescent band intensity at 10 uM incubated for 30 mins by coomassie brilliant blue staining based SDS-PAGE analysis. It is filed as ADME, cell-based. The conditions noted are these: sk-ov-3, 0.5 h.
A short description of series [11]: Drug localization in human OVCAR-3 cells assessed as increase in fluorescent band intensity at 10 uM incubated for 30 mins by coomassie brilliant blue staining based SDS-PAGE analysis. It is filed as ADME, cell-based. The conditions noted are these: ovcar-3, 0.5 h.
Series [12] has as its target T1, Protein LYRIC (Homo sapiens) (UniProt Q86UE4).
T1 sequence (whole entry): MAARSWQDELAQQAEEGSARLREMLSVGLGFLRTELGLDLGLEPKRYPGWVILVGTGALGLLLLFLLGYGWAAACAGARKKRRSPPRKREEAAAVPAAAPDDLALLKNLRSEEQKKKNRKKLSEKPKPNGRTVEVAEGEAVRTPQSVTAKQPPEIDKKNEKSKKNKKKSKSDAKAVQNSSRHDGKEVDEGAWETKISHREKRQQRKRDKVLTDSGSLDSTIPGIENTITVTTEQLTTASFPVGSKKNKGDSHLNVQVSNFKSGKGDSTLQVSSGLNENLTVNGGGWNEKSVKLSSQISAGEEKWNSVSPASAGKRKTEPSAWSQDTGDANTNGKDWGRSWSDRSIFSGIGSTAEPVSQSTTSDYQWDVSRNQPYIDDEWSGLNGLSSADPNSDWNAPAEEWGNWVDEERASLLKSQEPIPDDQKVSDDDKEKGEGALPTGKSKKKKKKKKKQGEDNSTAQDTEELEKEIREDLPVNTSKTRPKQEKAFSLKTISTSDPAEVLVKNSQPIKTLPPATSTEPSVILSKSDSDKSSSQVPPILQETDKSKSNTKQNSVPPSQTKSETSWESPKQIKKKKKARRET
The series is described as follows: Binding affinity to Lyric in human MDA-MB-231 cells assessed as change in melting temperature at 10 uM incubated for 1 hr by cellular thermal shift assay. It is filed as cell-based.

Series [13] has as its target T2, Dipeptidyl peptidase 3 (Homo sapiens) (UniProt Q9NY33).
T2 sequence (whole entry): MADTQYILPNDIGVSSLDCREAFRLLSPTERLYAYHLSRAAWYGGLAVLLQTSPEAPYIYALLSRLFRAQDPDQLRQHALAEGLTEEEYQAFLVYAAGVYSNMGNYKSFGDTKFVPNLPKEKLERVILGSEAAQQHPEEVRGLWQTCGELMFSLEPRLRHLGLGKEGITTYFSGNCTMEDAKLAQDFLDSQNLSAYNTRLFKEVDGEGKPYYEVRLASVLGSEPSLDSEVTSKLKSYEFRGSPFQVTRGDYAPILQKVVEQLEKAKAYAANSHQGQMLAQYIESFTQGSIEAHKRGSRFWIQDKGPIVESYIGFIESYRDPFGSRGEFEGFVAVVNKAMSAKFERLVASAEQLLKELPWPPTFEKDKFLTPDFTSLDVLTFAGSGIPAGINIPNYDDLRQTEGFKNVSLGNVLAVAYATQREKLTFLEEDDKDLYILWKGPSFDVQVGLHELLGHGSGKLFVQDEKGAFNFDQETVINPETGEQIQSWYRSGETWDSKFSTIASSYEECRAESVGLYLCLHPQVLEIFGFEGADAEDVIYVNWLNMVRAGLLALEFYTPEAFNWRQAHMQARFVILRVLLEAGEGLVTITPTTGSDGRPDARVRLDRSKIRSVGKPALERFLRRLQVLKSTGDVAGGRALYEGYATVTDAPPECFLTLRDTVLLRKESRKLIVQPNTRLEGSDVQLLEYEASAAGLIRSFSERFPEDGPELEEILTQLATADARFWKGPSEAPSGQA
Briefly: Binding affinity to DPP3 in human MDA-MB-231 cells assessed as change in melting temperature at 10 uM incubated for 1 hr by cellular thermal shift assay. It is filed as cell-based.

Series [14] addresses T3, 6-phosphogluconate dehydrogenase, decarboxylating (Homo sapiens) (UniProt P52209).
T3 sequence (whole entry): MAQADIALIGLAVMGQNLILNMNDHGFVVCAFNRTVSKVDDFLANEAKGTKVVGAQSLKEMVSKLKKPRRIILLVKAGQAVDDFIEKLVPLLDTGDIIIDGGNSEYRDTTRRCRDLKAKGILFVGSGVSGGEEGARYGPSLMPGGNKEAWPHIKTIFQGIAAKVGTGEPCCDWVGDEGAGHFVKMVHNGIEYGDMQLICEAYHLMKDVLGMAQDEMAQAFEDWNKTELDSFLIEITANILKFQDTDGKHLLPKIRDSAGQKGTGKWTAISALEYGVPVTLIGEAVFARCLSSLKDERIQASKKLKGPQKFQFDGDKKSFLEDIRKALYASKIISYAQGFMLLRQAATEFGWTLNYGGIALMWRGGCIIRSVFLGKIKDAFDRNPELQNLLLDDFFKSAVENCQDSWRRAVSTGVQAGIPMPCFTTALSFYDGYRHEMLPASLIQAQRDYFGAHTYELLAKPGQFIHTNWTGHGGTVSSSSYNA
Briefly: Binding affinity to PGD in human MDA-MB-231 cells assessed as change in melting temperature at 10 uM incubated for 1 hr by cellular thermal shift assay. It is filed as cell-based.

Series [15] relates to MDA-MB-231. Briefly: Binding affinity to CAPN-1 in human MDA-MB-231 cells assessed as change in melting temperature at 10 uM incubated for 1 hr by cellular thermal shift assay. It is filed as cell-based.

As for `C=CCc1ccc(OCCCn2cc(CCCC(=O)Nc3ccc(C(=O)c4ccc(NC(=O)CCCC[C@@H]5SC[C@@H]6NC(=O)N[C@@H]65)cc4)cc3)nn2)c(-c2ccc(O)c(CC=C)c2)c1`, the half-inhibitory concentration (IC50) with MDA-MB-231 [1], in the series with SK-OV-3 and in the series on OVCAR-3 was above 100 µM each time.

In the case of `C#CCCC1(CCC(=O)NCCCc2cc(-c3cc(CC=C)ccc3OCC)ccc2O)N=N1`, the IC50 (as a rule, the point on the concentration scale where inhibition reaches its midpoint) came out at 39 µM in the series with MDA-MB-231 [1], 44 µM in the series on SK-OV-3 and 50 µM in the series on OVCAR-3. Moreover, the Drug uptake result in series [2] is listed as “Dose-dependent-effect”; in [3], “Not_active”; in series [4], “Not_active”; in series [5], “Not_active”; in [6], “Not_active”; in series [7], “Not_active”. Further, the Drug uptake entry in series [8] and in series [9] was “Not_active” throughout.

Regarding `C#CCCC1(CCC(=O)NCCCc2ccc(OCC)c(-c3ccc(O)c(CC=C)c3)c2)N=N1`, the IC50 with MDA-MB-231 [1] came to 37 µM; in the series on SK-OV-3 it was 39 µM; with OVCAR-3, 30 µM. For the same molecule, the Drug uptake result in [2] was “Dose-dependent-effect”; in series [3] it was “Not_active”; in series [4], “Active”; in [5], “Not_active”; in series [6], “Not_active”; in series [7], “Not_active”. The Drug uptake result in series [8] is listed as “Not_active”; in series [9] it was “Not_active”; in series [10] it was “Active”; in [11], “Active”.

As for `C=CCc1ccc(OCC)c(-c2ccc(O)c(CCCn3cc(CCCC(=O)Nc4ccc(C(=O)c5ccc(NC(=O)CCCC[C@@H]6SC[C@@H]7NC(=O)N[C@@H]76)cc5)cc4)nn3)c2)c1`, the IC50 in the series with MDA-MB-231 [1], in the series on SK-OV-3 and in the series with OVCAR-3 was above 100 µM in each case.

For `C=CCc1cc(-c2cc(CCCn3cc(CCCC(=O)Nc4ccc(C(=O)c5ccc(NC(=O)CCCC[C@@H]6SC[C@@H]7NC(=O)N[C@@H]76)cc5)cc4)nn3)ccc2OCC)ccc1O`, the IC50 in the series with MDA-MB-231 [1], with SK-OV-3 and in the series with OVCAR-3 was above 100 µM throughout.

Regarding `C=CCc1ccc(O)c(-c2ccc(O)c(CC=C)c2)c1` [HONOKIOL], the IC50 in the series on MDA-MB-231 [1] was determined as 46 µM; with SK-OV-3 it was 48 µM; with OVCAR-3, 51 µM. Moreover, the ΔTm (usually the change in melting temperature against a reference sample) was 1 °C in series [12], 2.3 °C in [13], 1.6 °C in [14] and 4.3 °C with MDA-MB-231 [15].

With `C=CCc1cc(-c2cc(Cc3cn(CCCCCC(=O)Nc4ccc(C(=O)c5ccc(NC(=O)CCCC[C@@H]6SC[C@@H]7NC(=O)N[C@@H]76)cc5)cc4)nn3)ccc2OCC)ccc1O`, the IC50 in the series on MDA-MB-231 [1], in the series with SK-OV-3 and with OVCAR-3 was above 100 µM throughout.

As for `C=CCc1ccc(OCC)c(-c2ccc(O)c(CC=C)c2)c1`, the IC50 was 28 µM in the series on MDA-MB-231 [1], 43 µM in the series on SK-OV-3 and 37 µM in the series with OVCAR-3.
